Like-named read-outs stand apart in the source and are kept apart here.
Columns and labels:
U937 cells = experiment: Cell viability assay (CELL-TITER-GLO) in U937 cells; assay type: cell-based; conditions: Homo sapiens, U937 cells, 48 hour treatment, cell viability, read-out: IC50 (μM) U937
Experimental: (§1) Cell viability assays were run using standard protocols known to those of skill in art. Cells were plated in 96 well plates at the density of 3,000-10,000 cells per well. Twenty four hours later, cells were treated with increasing concentration of test compounds (1 nM to 1 μM). After another 48 hour, cell survival was measured using CELL-TITER-GLO® reagent (Promega) following the protocol provided by the manufacture. The IC50 value was determined as the concentration of test compound that kills 50% of the cell population.
(§2) Cell viability data generated according to the protocol described in Example 97 was generated for representative compounds in A2058 and U937 cells.

A2058 cells = experiment: Cell viability assay (CELL-TITER-GLO) in A2058 cells; assay type: cell-based; conditions: Homo sapiens, A2058 cells, 48 hour treatment, cell viability, read-out: IC50 (μM) A2058
Experimental: as §1, §2

SMILES | IC50 (U937 cells; U-937, 48 h) [µM] | IC50 (A2058 cells; A2058, 48 h) [µM] | IC50 (U937 cells; U-937) [µM] | IC50 (A2058 cells) [µM]
CC(C)[C@H](O)C(=O)N[C@H]1Cc2ccc3c(c2)[C@]24C5=C(N=C(O5)[C@H](C(C)C)NC1=O)c1ncc(o1)-c1c[nH]c5cccc(c15)-c1cccc2c1NC4O3 (stereo partly shown) [Cpd J, reference compound] | 0.026 | 0.039 | – | –
COC(=O)c1nc2oc1[C@@]13c4ccccc4NC1Oc1ccc(cc13)CC(N)C(=O)N[C@H]2C(C)C (stereo partly shown) [Example 3] | > 1 | > 1 | – | –
COC(=O)c1nc2oc1[C@@]13c4ccccc4NC1Oc1ccc(cc13)CC(NC(=O)OCc1ccccc1)C(=O)N[C@H]2C(C)C (stereo partly shown) [Example 4] | – | – | > 1 | > 1
COC(=O)c1nc2oc1[C@@]13c4ccccc4NC1Oc1ccc(cc13)C[C@H](NC(=O)[C@@H](O)C(C)C)C(=O)N[C@H]2C(C)C (stereo partly shown) [Example 6] | > 1 | > 1 | – | –
COC(=O)c1nc2oc1[C@@]13c4ccccc4NC1Oc1ccc(cc13)C[C@H](NC(=O)[C@@H](O)c1ccccc1)C(=O)N[C@H]2C(C)C (stereo partly shown) [Example 7] | > 1 | > 1 | – | –
[H][C@]1(C(=O)N[C@H]2Cc3ccc4c(c3)C3(C5=C(C(=O)OC)N=C(O5)[C@H](C(C)C)NC2=O)c2ccccc2N[C@H]3O4)CCCO1 (stereo partly shown) [Example 8] | > 1 | > 1 | – | –
COC(=O)c1nc2oc1C13c4ccccc4N[C@H]1Oc1ccc(cc13)C[C@H](NC(=O)[C@@H](O)CC(C)C)C(=O)N[C@H]2C(C)C (stereo partly shown) [Example 9] | > 1 | > 1 | – | –
COC(=O)c1nc2oc1C13c4ccccc4N[C@H]1Oc1ccc(cc13)C[C@H](NC(=O)c1cc(OC)c(OC)c(OC)c1)C(=O)N[C@H]2C(C)C (stereo partly shown) [Example 10] | > 1 | > 1 | – | –
CC(C)[C@H](O)C(=O)N[C@H]1Cc2ccc3c(c2)[C@]2(C4=C(C(=O)NCCc5c[nH]c6ccccc56)N=C(O4)[C@H](C(C)C)NC1=O)c1ccccc1NC2O3 (stereo partly shown) [Example 11] | > 1 | > 1 | – | –
CC(C)[C@H](O)C(=O)N[C@H]1Cc2ccc3c(c2)[C@]2(C4=C(C(=O)O)N=C(O4)[C@H](C(C)C)NC1=O)c1ccccc1NC2O3 (stereo partly shown) [Example 12] | – | – | > 1 | > 1
COC(=O)[C@@H]1CCCN1C(=O)c1nc2oc1C13c4ccccc4N[C@H]1Oc1ccc(cc13)C[C@H](NC(=O)[C@@H](O)C(C)C)C(=O)N[C@H]2C(C)C (stereo partly shown) [Example 13] | > 1 | > 1 | – | –
CC(C)[C@H](O)C(=O)N[C@H]1Cc2ccc3c(c2)C2(C4=C(C(=O)N5CCCC5)N=C(O4)[C@H](C(C)C)NC1=O)c1ccccc1N[C@H]2O3 (stereo partly shown) [Example 14] | > 1 | > 1 | – | –
CC(C)[C@H](O)C(=O)N[C@H]1Cc2ccc3c(c2)C2(C4=C(C(=O)NCc5ccccc5)N=C(O4)[C@H](C(C)C)NC1=O)c1ccccc1N[C@H]2O3 (stereo partly shown) [Example 15] | – | – | > 1 | > 1
CC(C)[C@H](O)C(=O)N[C@H]1Cc2ccc3c(c2)C2(C4=C(C(=O)NCC5CCCCC5)N=C(O4)[C@H](C(C)C)NC1=O)c1ccccc1N[C@H]2O3 (stereo partly shown) [Example 16] | > 1 | > 1 | – | –
CC(C)[C@H](O)C(=O)N[C@H]1Cc2ccc3c(c2)C2(C4=C(C(=O)N[C@@H]5CCCc6ccccc65)N=C(O4)[C@H](C(C)C)NC1=O)c1ccccc1N[C@H]2O3 (stereo partly shown) [Example 17] | > 1 | > 1 | – | –
CC(C)[C@H](O)C(=O)N[C@H]1Cc2ccc3c(c2)C2(C4=C(C(=O)NCC(c5ccccc5)c5ccccc5)N=C(O4)[C@H](C(C)C)NC1=O)c1ccccc1N[C@H]2O3 (stereo partly shown) [Example 18] | > 1 | > 1 | – | –
CC(C)[C@H](O)C(=O)N[C@H]1Cc2ccc3c(c2)C2(C4=C(C(=O)NC(c5ccccc5)c5ccccc5)N=C(O4)[C@H](C(C)C)NC1=O)c1ccccc1N[C@H]2O3 (stereo partly shown) [Example 19] | – | – | > 1 | > 1
CC(C)[C@H](O)C(=O)N[C@H]1Cc2ccc3c(c2)C2(C4=C(C(=O)NCc5ccc(F)cc5)N=C(O4)[C@H](C(C)C)NC1=O)c1ccccc1N[C@H]2O3 (stereo partly shown) [Example 20] | > 1 | > 1 | – | –
CC(C)[C@H](O)C(=O)N[C@H]1Cc2ccc3c(c2)C2(C4=C(C(=O)N5CCCC5c5ccccc5)N=C(O4)[C@H](C(C)C)NC1=O)c1ccccc1N[C@H]2O3 (stereo partly shown) [Example 21] | > 1 | > 1 | – | –

SMILES | IC50 (U937 cells; U-937, 48 h) [µM] | IC50 (A2058 cells; A2058, 48 h) [µM] | IC50 (U937 cells; U-937) [µM] | IC50 (A2058 cells) [µM]
CC(C)[C@H](O)C(=O)N[C@H]1Cc2ccc3c(c2)C2(C4=C(C(=O)NC5CCCCC5)N=C(O4)[C@H](C(C)C)NC1=O)c1ccccc1N[C@H]2O3 (stereo partly shown) [Example 22] | > 1 | > 1 | – | –
CNC(=O)c1nc2oc1C13c4ccccc4N[C@H]1Oc1ccc(cc13)C[C@H](NC(=O)[C@@H](O)C(C)C)C(=O)N[C@H]2C(C)C (stereo partly shown) [Example 23] | > 1 | > 1 | – | –
CC(C)[C@H](O)C(=O)N[C@H]1Cc2ccc3c(c2)C2(C4=C(C(=O)NC(C)(C)C)N=C(O4)[C@H](C(C)C)NC1=O)c1ccccc1N[C@H]2O3 (stereo partly shown) [Example 24] | > 1 | > 1 | – | –
CCN(CC)C(=O)c1nc2oc1C13c4ccccc4N[C@H]1Oc1ccc(cc13)C[C@H](NC(=O)[C@@H](O)C(C)C)C(=O)N[C@H]2C(C)C (stereo partly shown) [Example 25] | > 1 | > 1 | – | –
CC(C)[C@H](O)C(=O)N[C@H]1Cc2ccc3c(c2)C2(C4=C(C(=O)N5CCc6ccccc65)N=C(O4)[C@H](C(C)C)NC1=O)c1ccccc1N[C@H]2O3 (stereo partly shown) [Example 26] | > 1 | > 1 | – | –
CC(C)[C@H](O)C(=O)N[C@H]1Cc2ccc3c(c2)C2(C4=C(C(=O)N5CCN=C5c5ccccc5)N=C(O4)[C@H](C(C)C)NC1=O)c1ccccc1N[C@H]2O3 (stereo partly shown) [Example 27] | > 1 | > 1 | – | –
CC(C)[C@H](O)C(=O)N[C@H]1Cc2ccc3c(c2)C2(C4=C(C(=O)NC5CCc6ccccc65)N=C(O4)[C@H](C(C)C)NC1=O)c1ccccc1N[C@H]2O3 (stereo partly shown) [Example 28] | > 1 | > 1 | – | –
CC(C)[C@H](O)C(=O)N[C@H]1Cc2ccc3c(c2)C2(C4=C(C(=O)NCCO)N=C(O4)[C@H](C(C)C)NC1=O)c1ccccc1N[C@H]2O3 (stereo partly shown) [Example 29] | > 1 | > 1 | – | –
COC(=O)[C@H](CO)NC(=O)c1nc2oc1C13c4ccccc4N[C@H]1Oc1ccc(cc13)C[C@H](NC(=O)[C@@H](O)C(C)C)C(=O)N[C@H]2C(C)C (stereo partly shown) [Example 30] | > 1 | > 1 | – | –
CC(C)[C@H](O)C(=O)N[C@H]1Cc2ccc3c(c2)[C@]2(C4=C(C(N)=O)N=C(O4)[C@H](C(C)C)NC1=O)c1ccccc1NC2O3 (stereo partly shown) [Example 31] | > 1 | > 1 | – | –
CC(C)[C@H](O)C(=O)N[C@H]1Cc2ccc3c(c2)C2(C4=C(C(=O)NCC(=O)c5c[nH]c6c(O)cccc56)N=C(O4)[C@H](C(C)C)NC1=O)c1ccccc1N[C@H]2O3 (stereo partly shown) [Example 32] | > 1 | > 1 | – | –
CC(C)[C@H](O)C(=O)N[C@H]1Cc2ccc3c(c2)C2(C4=C(C(=O)NCC(=O)c5c[nH]c6c(O)cccc56)N=C(O4)[C@H](C(C)C)NC1=O)c1cccc(Br)c1N[C@H]2O3 (stereo partly shown) [Example 33] | > 1 | > 1 | – | –
CC(C)[C@H](O)C(=O)N[C@H]1Cc2ccc3c(c2)C2(C4=C(C(=O)NCC(=O)c5c[nH]c6ccccc56)N=C(O4)[C@H](C(C)C)NC1=O)c1ccccc1N[C@H]2O3 (stereo partly shown) [Example 34] | > 1 | > 1 | – | –
COC(=O)c1nc2oc1C13c4ccccc4N[C@H]1Oc1ccc(cc13)C[C@H](NC(=O)[C@@H]1CCCN1)C(=O)NC2C(C)C (stereo partly shown) [Example 35] | > 1 | > 1 | – | –
COC(=O)c1nc2oc1C13c4ccccc4N[C@H]1Oc1ccc(cc13)C[C@H](NC(=O)[C@@H]1C[C@@H](O)CN1)C(=O)NC2C(C)C (stereo partly shown) [Example 36] | – | – | > 1 | > 1
COC(=O)c1nc2oc1C13c4cc(ccc4O[C@@H]1N(S(C)(=O)=O)c1ccccc13)C[C@H](NC(=O)[C@@H](O)C(C)C)C(=O)N[C@H]2C(C)C (stereo partly shown) [Example 37] | > 1 | > 1 | – | –
COC(=O)c1nc2oc1C13c4cc(ccc4O[C@@H]1Nc1c(-c4ccccc4)cccc13)C[C@H](NC(=O)[C@@H](O)C(C)C)C(=O)N[C@H]2C(C)C (stereo partly shown) [Example 38] | > 1 | > 1 | – | –
COC(=O)c1nc2oc1C13c4cc(ccc4O[C@@H]1Nc1c(-c4cccc5[nH]ccc45)cccc13)C[C@H](NC(=O)[C@@H](O)C(C)C)C(=O)N[C@H]2C(C)C (stereo partly shown) [Example 39] | > 1 | > 1 | – | –
COC(=O)c1nc2oc1C13c4cc(ccc4O[C@@H]1Nc1c(-c4c(C)cccc4C)cccc13)C[C@H](NC(=O)[C@@H](O)C(C)C)C(=O)N[C@H]2C(C)C (stereo partly shown) [Example 40] | > 1 | > 1 | – | –
